Measurements published in patent US10464922B2, “Metalloenzyme inhibitor compounds” (NQP 1598 LTD., priority 2015, dated 2019).
≈ marks a conversion by molar mass, not a printed value.

Assays:
[1] = tested on: C. albicans (ATCC 90028); assay: Minimum inhibitory concentration, in vitro broth microdilution assay (CLSI M27-A2); assay type: cell-based, Candida albicans; details: ATCC 90028, about 50% growth reduction, 2 days at 36° C., range tested 8-0.0078 μg/mL, values given as ranges; for MIC: Candida albicans, ATCC90028, 48 h, read-out: Candida albicans MIC
Method: The antifungal potency of the test compounds was measured using the in vitro broth microdilution assay under assay conditions described by the Clinical and Laboratory Standards Institute (CLSI M27-A2). The test compounds were dissolved in 100% DMSO, suspended completely by sonication or vortexing, diluted by 2-fold serial titrations in the same vehicle, for a total of 11 test concentrations. A 4 μL aliquot of each dilution was added to 196 μL of RPMI-1640+MOPS medium seeded with the C. albicans (ATCC 90028) suspension in wells of a 96 well plate (fungal cell count: 1×10^3 to 1×10^4 colony forming units per mL). The final volume was 200 μL in each well and the final DMSO concentration was 2 percent. The inoculated plates were incubated for 2 days at 36° C. Following incubation, the test plates were visually examined and wells were scored for growth to define the minimum inhibitory concentration. […] Each test substance was evaluated in duplicate. Vehicle-control and an active reference agent (e.g., posaconazole) were used as blank and positive controls, respectively.

[2] = tested on: A. fumigatus; assay: A. fumigatus MIC at 100% growth inhibition (CLSI M38-A2); assay type: cell-based, Aspergillus fumigatus; details: 100% growth inhibition, range tested 8-0.0078 μg/mL, values given as ranges; for MIC: Aspergillus fumigatus, read-out: Aspergillus fumigatus MIC
Method: A. fumigatus MICs were determined at 100% growth inhibition following CLSI guidelines at a concentration range of 8-0.0078 μg/mL (CLSI M38-A2).

Row | SMILES | MIC [1] | MIC [2] | Candida albicans MIC [1] | Aspergillus fumigatus MIC [2]
1 | O[C@@](Cn1cnnn1)(c1ccc(F)cc1F)C(F)(F)c1ccc(-c2ccc(N3CCN(c4ccc(F)cc4)CC3)cc2)cn1 [Example 2, (R)-2-(2,4-difluorophenyl)-1,1-difluoro-1-(5-(4-(4-(4-fluorophenyl)piperazin-1-yl)phenyl)pyridin-2-yl)-3-(1H-tetrazol-1-yl) propan-2-ol] | 0.0078 to 0.01 µg/mL (≈ 0.0128 to 0.0165 µM) | 0.25 to 1 µg/mL (≈ 0.411 to 1.65 µM) |  | 
2 | NC(c1ccc(N2CCN(c3ccc(-c4ccc(C(F)(F)[C@](O)(Cn5cnnn5)c5ccc(F)cc5F)nc4)cc3)CC2)cc1)C(F)(F)F (stereo partly drawn) [Example 4, (2R)-1-(5-(4-(4-(4-(1-amino-2,2,2-trifluoroethyl)phenyl)piperazin-1-yl)phenyl)pyridin-2-yl)-2-(2,4-difluorophenyl)-1,1-difluoro-3-(1H-tetrazol-1-yl) propan-2-ol] | 0.01 to 0.1 µg/mL (≈ 0.0146 to 0.146 µM) | 0.25 to 1 µg/mL (≈ 0.364 to 1.46 µM) |  | 
3 | OC(c1ccc(N2CCN(c3ccc(-c4ccc(C(F)(F)[C@](O)(Cn5cnnn5)c5ccc(F)cc5F)nc4)cc3)CC2)cc1F)C(F)(F)F (stereo partly drawn) [Example 5, (2R)-2-(2,4-difluorophenyl)-1,1-difluoro-1-(5-(4-(4-(3-fluoro-4-(2,2,2-trifluoro-1-hydroxyethyl)phenyl)piperazin-1-yl)phenyl)pyridin-2-yl)-3-(1H-tetrazol-1-yl) propan-2-ol] | 0.0078 to 0.01 µg/mL (≈ 0.0111 to 0.0142 µM) | 0.25 to 1 µg/mL (≈ 0.354 to 1.42 µM) |  | 
4 | OC(c1ccc(N2CCN(c3ccc(-c4ccc(C(F)(F)[C@](O)(Cn5cnnn5)c5ccc(F)cc5F)nc4)cc3)CC2)cn1)C(F)(F)F (stereo partly drawn) [Example 6, (2R)-2-(2,4-difluorophenyl)-1,1-difluoro-3-(1H-tetrazol-1-yl)-1-(5-(4-(4-(6-(2,2,2-trifluoro-1-hydroxyethyl)pyridin-3-yl)piperazin-1-yl)phenyl)pyridin-2-yl) propan-2-ol] |  |  | ≤0.0078 to 0.010 µg/mL | 0.25 to 1.0 µg/mL
5 | N#Cc1ccc(N2CCN(c3ccc(-c4ccc(C(F)(F)[C@](O)(Cn5cnnn5)c5ccc(F)cc5F)nc4)cc3F)CC2)c(F)c1 [Example 9, (R)-4-(4-(4-(6-(2-(2,4-difluorophenyl)-1,1-difluoro-2-hydroxy-3-(1H-tetrazol-1-yl)propyl)pyridin-3-yl)-2-fluorophenyl)piperazin-1-yl)-3-fluorobenzonitrile] | 0.0078 to 0.01 µg/mL (≈ 0.012 to 0.0154 µM) | > 8 µg/mL |  | 
6 | N#Cc1ccc(N2CCN(c3ccc(-c4ccc(C(F)(F)[C@](O)(Cn5cnnn5)c5ccc(F)cc5F)nc4)cc3F)CC2)cc1 [Example 10, (R)-4-(4-(4-(6-(2-(2,4-difluorophenyl)-1,1-difluoro-2-hydroxy-3-(1H-tetrazol-1-yl)propyl)pyridin-3-yl)-2-fluorophenyl)piperazin-1-yl) benzonitrile] | 0.0078 to 0.01 µg/mL (≈ 0.0123 to 0.0158 µM) | > 8 µg/mL |  | 
7 | N#Cc1ccc(N2CCN(c3ccc(-c4ccc(C(F)(F)[C@](O)(Cn5cnnn5)c5ccc(F)cc5F)nc4)cc3)CC2)c(F)c1 [Example 11, (R)-4-(4-(4-(6-(2-(2,4-difluorophenyl)-1,1-difluoro-2-hydroxy-3-(1H-tetrazol-1-yl)propyl)pyridin-3-yl)phenyl)piperazin-1-yl)-3-fluorobenzonitrile] | 0.0078 to 0.01 µg/mL (≈ 0.0123 to 0.0158 µM) | 0.25 to 1 µg/mL (≈ 0.395 to 1.58 µM) |  | 
8 | OC(CC(F)(F)F)c1ccc(N2CCN(c3ccc(-c4ccc(C(F)(F)[C@](O)(Cn5cnnn5)c5ccc(F)cc5F)nc4)cc3)CC2)cn1 (stereo partly drawn) [Example 13, 1-(5-(4-(4-(6-((R)-2-(2,4-difluorophenyl)-1,1-difluoro-2-hydroxy-3-(1H-tetrazol-1-yl)propyl)pyridin-3-yl)phenyl)piperazin-1-yl)pyridin-2-yl)-3,3,3-trifluoropropan-1-ol] | 0.0078 to 0.01 µg/mL (≈ 0.0111 to 0.0142 µM) |  |  | 0.25 to 1.0 µg/mL
9 | N#Cc1ccc(CN2CCN(c3ccc(-c4ccc(C(F)(F)[C@](O)(Cn5cnnn5)c5ccc(F)cc5F)nc4)cc3)CC2)cc1 [Example 17, (R)-4-((4-(4-(6-(2-(2,4-difluorophenyl)-1,1-difluoro-2-hydroxy-3-(1H-tetrazol-1-yl)propyl)pyridin-3-yl)phenyl)piperazin-1-yl)methyl) benzonitrile] | 0.0078 to 0.01 µg/mL (≈ 0.0124 to 0.0159 µM) | 1 to 4 µg/mL (≈ 1.59 to 6.36 µM) |  | 
10 | CC[C@H](NC(=O)Nc1ccc(N2CCN(c3ccc(-c4ccc(C(F)(F)[C@](O)(Cn5cnnn5)c5ccc(F)cc5F)nc4)cc3)CC2)cc1)[C@H](C)O [Example 21, 1-(4-(4-(4-(6-((R)-2-(2,4-difluorophenyl)-1,1-difluoro-2-hydroxy-3-(1H-tetrazol-1-yl)propyl)pyridin-3-yl)phenyl)piperazin-1-yl)phenyl)-3-((2S,3S)-2-hydroxypentan-3-yl) urea] | 0.01 to 0.1 µg/mL (≈ 0.0136 to 0.136 µM) | 0.25 to 1 µg/mL (≈ 0.341 to 1.36 µM) |  | 

The next lines start with the values.

Row | MIC [1] | MIC [2] | Candida albicans MIC [1] | Aspergillus fumigatus MIC [2] | SMILES
11 | 0.0078 to 0.01 µg/mL (≈ 0.0113 to 0.0145 µM) | 0.25 to 1 µg/mL (≈ 0.364 to 1.45 µM) |  |  | OC(c1ccc(N2CCN(c3ccc(-c4ccc(C(F)(F)[C@](O)(Cn5cnnn5)c5ccc(F)cc5F)nc4)cc3)CC2)cc1)C(F)(F)F (stereo partly drawn) [Example 3, (2R)-2-(2,4-difluorophenyl)-1,1-difluoro-3-(1H-tetrazol-1-yl)-1-(5-(4-(4-(4-(2,2,2-trifluoro-1-hydroxyethyl)phenyl)piperazin-1-yl)phenyl)pyridin-2-yl) propan-2-ol]
12 | 0.0078 to 0.01 µg/mL (≈ 0.0127 to 0.0162 µM) | 0.25 to 1 µg/mL (≈ 0.406 to 1.62 µM) |  |  | N#Cc1ccc(N2CCN(c3ccc(-c4ccc(C(F)(F)[C@](O)(Cn5cnnn5)c5ccc(F)cc5F)nc4)cc3)CC2)cn1 [Example 7, (R)-5-(4-(4-(6-(2-(2,4-difluorophenyl)-1,1-difluoro-2-hydroxy-3-(1H-tetrazol-1-yl)propyl)pyridin-3-yl)phenyl)piperazin-1-yl) picolinonitrile]
13 | 0.0078 to 0.01 µg/mL (≈ 0.0123 to 0.0158 µM) | 0.25 to 1 µg/mL (≈ 0.395 to 1.58 µM) |  |  | N#Cc1ccc(N2CCN(c3ccc(-c4ccc(C(F)(F)[C@](O)(Cn5cnnn5)c5ccc(F)cc5F)nc4)cc3)CC2)cc1F [Example 8, (R)-4-(4-(4-(6-(2-(2,4-difluorophenyl)-1,1-difluoro-2-hydroxy-3-(1H-tetrazol-1-yl)propyl)pyridin-3-yl)phenyl)piperazin-1-yl)-2-fluorobenzonitrile]
14 | 0.01 to 0.1 µg/mL (≈ 0.0165 to 0.165 µM) | > 8 µg/mL |  |  | Nc1ccc(N2CCN(c3ccc(-c4ccc(C(F)(F)[C@](O)(Cn5cnnn5)c5ccc(F)cc5F)nc4)cc3)CC2)cc1 [Example 14, (R)-1-(5-(4-(4-(4-aminophenyl)piperazin-1-yl)phenyl)pyridin-2-yl)-2-(2,4-difluorophenyl)-1,1-difluoro-3-(1H-tetrazol-1-yl) propan-2-ol]
15 | 0.0078 to 0.01 µg/mL (≈ 0.0114 to 0.0146 µM) | 0.25 to 1 µg/mL (≈ 0.364 to 1.46 µM) |  |  | OC(c1ccc(N2CCN(c3ccc(-c4ccc(C(F)(F)[C@](O)(Cn5cnnc5)c5ccc(F)cc5F)nc4)cc3)CC2)cc1)C(F)(F)F (stereo partly drawn) [Example 16, (2R)-2-(2,4-difluorophenyl)-1,1-difluoro-3-(4H-1,2,4-triazol-4-yl)-1-(5-(4-(4-(4-(2,2,2-trifluoro-1-hydroxyethyl)phenyl)piperazin-1-yl)phenyl)pyridin-2-yl) propan-2-ol]
16 | 0.0078 to 0.01 µg/mL (≈ 0.0124 to 0.0159 µM) | > 8 µg/mL |  |  | N#Cc1ccc(N2CCN(Cc3ccc(-c4ccc(C(F)(F)[C@](O)(Cn5cnnn5)c5ccc(F)cc5F)nc4)cc3)CC2)cc1 [Example 18, (R)-4-(4-(4-(6-(2-(2,4-difluorophenyl)-1,1-difluoro-2-hydroxy-3-(1H-tetrazol-1-yl)propyl)pyridin-3-yl)benzyl)piperazin-1-yl) benzonitrile]
17 | 0.0078 to 0.01 µg/mL (≈ 0.0121 to 0.0156 µM) | > 8 µg/mL |  |  | N#Cc1ccc(N2CCN(C(=O)c3ccc(-c4ccc(C(F)(F)[C@](O)(Cn5cnnn5)c5ccc(F)cc5F)nc4)cc3)CC2)cc1 [Example 19, (R)-4-(4-(4-(6-(2-(2,4-difluorophenyl)-1,1-difluoro-2-hydroxy-3-(1H-tetrazol-1-yl)propyl)pyridin-3-yl)benzoyl)piperazin-1-yl) benzonitrile]
